Test results: the supplement of paper PMC10307832

Assays:
Assay in all cases: relative viability (nuclei count vs DMSO), 5 days (fraction); higher = more cells survive
Ibrutinib + Olaparib = compound: C=CC(=O)N1CCC[C@@H](n2nc(-c3ccc(Oc4ccccc4)cc3)c3c(N)ncnc32)C1 [Ibrutinib] + O=C(c1cc(Cc2n[nH]c(=O)c3ccccc23)ccc1F)N1CCN(C(=O)C2CC2)CC1 [Olaparib] (partner 8 µM)
How it was run: (§1)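 For relative viability, nuclei counts in treated wells were divided by those in vehicle wells. Lung cancer cell lines had been pin-tool dosed in 1536-well plates the day after seeding and cultured for 5 days, then fixed and stained in one step (final 0.05% Triton X-100, 1% formaldehyde, 1 ug/ml Hoechst) and imaged at 4×. Doses were one drug alone or a fixed anchor-drug dose plus five library-drug doses (not always all listed) in √10 steps, and values are duplicate-plate medians.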

BMX-IN-1 + Pictilisib = compound: C=CC(=O)Nc1cc(-n2c(=O)ccc3cnc4ccc(-c5ccc(NS(C)(=O)=O)cc5)cc4c32)ccc1C [BMX-IN-1] + CS(=O)(=O)N1CCN(Cc2cc3nc(-c4cccc5[nH]ncc45)nc(N4CCOCC4)c3s2)CC1 [Pictilisib] (partner 1 µM)
How it was run: as §1

BMX-IN-1 + Pemetrexed = compound: C=CC(=O)Nc1cc(-n2c(=O)ccc3cnc4ccc(-c5ccc(NS(C)(=O)=O)cc5)cc4c32)ccc1C [BMX-IN-1] + Nc1nc2[nH]cc(CCc3ccc(C(=O)N[C@@H](CCC(=O)O)C(=O)O)cc3)c2c(=O)[nH]1 [Pemetrexed] (partner 0.2 µM)
How it was run: as §1

PAC-1 + Trametinib = compound: C=CCc1cccc(/C=N/NC(=O)CN2CCN(Cc3ccccc3)CC2)c1O [PAC-1] + CC(=O)Nc1cccc(-n2c(=O)n(C3CC3)c(=O)c3c(Nc4ccc(I)cc4F)n(C)c(=O)c(C)c32)c1 [Trametinib] (partner 0.02 µM)
How it was run: as §1

Cell Line | relative viability (Ibrutinib + Olaparib; first compound 0.005 µM) | relative viability (Ibrutinib + Olaparib; first compound 0.01581 µM) | relative viability (Ibrutinib + Olaparib; first compound 0.05 µM) | relative viability (Ibrutinib + Olaparib; first compound 0.1581 µM) | relative viability (Ibrutinib + Olaparib; first compound 0.5 µM) | relative viability (BMX-IN-1 + Pictilisib; first compound 0.02 µM) | relative viability (BMX-IN-1 + Pictilisib; first compound 0.2 µM) | relative viability (BMX-IN-1 + Pictilisib; first compound 0.6325 µM) | relative viability (BMX-IN-1 + Pictilisib; first compound 2 µM) | relative viability (BMX-IN-1 + Pemetrexed; first compound 0.02 µM) | relative viability (BMX-IN-1 + Pemetrexed; first compound 0.2 µM) | relative viability (BMX-IN-1 + Pemetrexed; first compound 0.6325 µM) | relative viability (BMX-IN-1 + Pemetrexed; first compound 2 µM) | relative viability (PAC-1 + Trametinib; first compound 0.02 µM) | relative viability (PAC-1 + Trametinib; first compound 0.06325 µM) | relative viability (PAC-1 + Trametinib; first compound 0.2 µM) | relative viability (PAC-1 + Trametinib; first compound 2 µM)
HCC-15 | 0.835 | 0.724 | 0.75 | 0.846 | 0.773 | 0.721 | 0.818 | 0.798 | 0.844 | 0.2 | 0.218 | 0.192 | 0.218 | 0.373 | 0.38 | 0.419 | 0.41
HCC-44 | 1.06 | 0.965 | – | 1 | 1.07 | 0.732 | 0.687 | 0.836 | 0.622 | 0.727 | 0.663 | 0.625 | 0.678 | 1.05 | 1.08 | 1.07 | 1.02
HCC-78 | – | 0.773 | 0.716 | 0.87 | 0.679 | 0.214 | 0.18 | 0.242 | 0.249 | 0.971 | 0.989 | 0.935 | 0.913 | 0.725 | 0.725 | 0.849 | 0.782
HCC-366 | 0.401 | 0.33 | 0.357 | 0.403 | 0.381 | 0.124 | 0.666 | 0.137 | 0.16 | 0.163 | 0.183 | 0.165 | 0.202 | 0.339 | 0.318 | 0.312 | 0.365
HCC-827 | 0.699 | 0.667 | 0.568 | 0.681 | 0.216 | 1.03 | 1.15 | 1.04 | 1.05 | 0.237 | 0.297 | 0.287 | 0.235 | 0.505 | 0.569 | 0.528 | 0.536
